{"source": "patent US8357679B2", "about": "“Hexafluoroisopropanol derivatives” (MSD Oss B.V., priority 2008, dated 2013)", "origin": "cited, not measured here", "key": {"[1]": {"tested_on": "vascular smooth muscle cell", "settings": "in vitro"}, "[2]": {"settings": "in vivo"}, "[3]": {"settings": "in vivo", "remark": "listed apart in the source"}, "tumours": {"tested_on": "tumours", "settings": "animal model of prostate cancer"}}}
{"smiles": "O=S(=O)(c1ccccc1)N(CC(F)(F)F)c1ccc(C(O)(C(F)(F)F)C(F)(F)F)cc1", "note": "[Example T0901317, T0901317]", "values": [{"measurement": "vascular smooth muscle cell proliferation", "setting": "[1]", "result": "inhibit"}, {"measurement": "deposition of β-amyloid", "setting": "[2]", "result": "lower deposition of β-amyloid"}, {"measurement": "memory", "setting": "[2]", "result": "improve memory"}, {"measurement": "neointima formation following balloon injury", "setting": "[3]", "result": "inhibit"}, {"measurement": "progression of tumours", "setting": "tumours", "result": "delayed progression of tumours"}]}
